Measurements from US20250205204A1, “Transcription Factor Brn2 Inhibitory Compounds for Use as Therapeutics” (The University of British Columbia, priority 2021, published 2025).
pIC50: −log10 of the molar value. Like-named read-outs stand apart in the source and are kept apart here.

Experiments:
[1] = Metabolic stability in liver microsomes (MLM); assay type: in vitro ADME, mice; conditions: 0.25 mg/mL protein; for half-life at 1 μM: mouse, liver microsomes, pH 7.4, 1 μM compound, read-out: T1/2 in mins (MLM); for Met Stab % (60 mins) MLM: percent remaining at 60 min, 1 μM compound, 1 mM NADPH
Protocol: Preparation of Potassium Phosphate Buffer, 50 mM (pH 7.4)
Potassium phosphate buffer (Kphos) was prepared by adding 0.647 g potassium phosphate monobasic (KH2PO4) and 3.527 g potassium phosphate dibasic (KH2PO4) to 400 mL of Milli-Q™ water. pH of the buffer was adjusted to 7.4 and volume was made up to 500 mL.
Preparation of Microsomes
Stock solutions of BRN2 inhibitors were prepared in DMSO at a concentration of 1 mM
Preparation of NADPH Solution
• Total Incubation volume: 100 μL • Compound concentration: 1 μM • Protein Concentration: 0.25 mg/mL • NADPH: 1 mM • Final DMSO contain: 0.1% • Number of replicates: 2 • Time points: 0, 5, 15, 30 and 60 min
From the above mix, 70 μL was added to individual wells of 96 well reaction plates and pre-incubated in a 37° C. water bath for 5 min. […] Reactions without NADPH and buffer controls (minus NADPH) at 0 min and 60 min were also incubated to rule out non-NADPH metabolism or chemical instability in the incubation buffer. All reactions were terminated using 100 μL of ice-cold acetonitrile containing internal standard at 0, 5, 15, 30 and 60 min.
Samples were monitored for parent compounds disappearance in MRM mode using LC-MS/MS.
The percent remaining of test compounds and positive control in each sample was determined by considering peak area ratio in the 0 minute sample as 100%. The Half-life of compounds in microsomes is calculated by formula: […]
In vitro intrinsic clearance (CL'int) (units in mL/min/kg) was calculated using the formula.
[formula] • For liver microsomes, scaling factor used was 45 mg microsomal protein per gm liver. • * Indicates liver weight (gm) which varies species wise. For mice the liver weights are 90 gm.

BRN2 = target: T1, BRN2 (Homo sapiens, UniProt P20265); assay: BLI binding; conditions: result in words
T1 sequence (P20265 1-443): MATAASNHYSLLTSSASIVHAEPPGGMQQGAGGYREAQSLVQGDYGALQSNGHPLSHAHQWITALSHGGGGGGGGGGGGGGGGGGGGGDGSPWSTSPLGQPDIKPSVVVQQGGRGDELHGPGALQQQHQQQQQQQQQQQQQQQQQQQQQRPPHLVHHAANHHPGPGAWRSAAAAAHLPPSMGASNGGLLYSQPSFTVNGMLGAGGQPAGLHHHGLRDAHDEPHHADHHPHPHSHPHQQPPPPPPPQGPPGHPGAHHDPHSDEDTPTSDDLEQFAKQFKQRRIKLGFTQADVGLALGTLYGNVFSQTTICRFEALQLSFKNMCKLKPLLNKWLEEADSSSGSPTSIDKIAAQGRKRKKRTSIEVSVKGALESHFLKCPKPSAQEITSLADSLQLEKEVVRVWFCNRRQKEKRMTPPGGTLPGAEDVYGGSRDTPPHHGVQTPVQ

42D^ENZR cells = assay: Cell proliferation, BRN2 expressing 42D cells (crystal violet); assay type: cell-based; conditions: for Growth Specificity: 42D (express BRN2) versus 16D (no BRN2) cells, result in words
Protocol: Step 3: Cell Proliferation
Plate 42DE^NZR (˜7000 cells per well) and 16D^CRPC (˜5000 cells per well) cells in 96 well plate with a volume of 100 μL per well. • 2. Next day 1 mL aliquots of media are combined with 3× the desired concentration of compounds. The aliquots are vortexed and 50 μL of each 3× concentration is added to the 100 μL of media in each well to give the ix desired concentration.
The following are the desired concentrations:
Approximately 72 hours later, 17 μL of 10% Glutaraldehyde is added to each well and plates are placed on a shaker for 20-30 minutes. • 4. Media is washed off the fixed cells by slow submersion in a container of water. Then the water is removed by tapping the plate upside down. • 5. 75 μL of Crystal Violet™ solution is added into the 96 well plates and placed on a shaker for ˜30 minutes. • 6. Media is washed off the fixed cells by repeated slow submersion in a container of water and the plates are allowed to dry over-night. • 7. Next day, 75 μL of Sorensen Solution is accurately pipetted into each well. The plates placed on a shaker for ˜30 minutes. • 8. Absorbance is measured in the plate at 590 nm.
There is a distinction in TABLES 1 and 2 difference between “Active” and “Specific” or “Specificity”.

[2] = 42D cells, proliferation, about 72 hours, read-out: 42D IC50

Row | Structure (SMILES) | half-life at 1 μM [1] | Met Stab % (60 mins) MLM [1] | BLI binding (BRN2) | Growth Specificity (42D^ENZR cells; about 72 hours) | pIC50 (42D^ENZR cells; read-out: IC50 (effective on both 42D and 16D cells)) | pIC50 (42D^ENZR cells; [2])
1 | O=C1C/C(=N/Nc2nc3ccccc3s2)c2ccccc21 [7-52] | 23 min | 9% | Positive | effective on both 42D and 16D cells | 5.15 to 5.52 | 
2 | O=C1/C(=N\Nc2nc3ccccc3s2)Cc2cc(F)ccc21 [7-70, (Z)-2-(2-(benzo[d]thiazol-2-yl)hydrazineylidene)-5-fluoro-2,3-dihydro-1H-inden-1-one] | 50 min | 38% | Positive binding | Specific to 42D |  | ~5.30
3 | O=C1/C(=N\Nc2nc3ccccc3s2)Cc2cc(Cl)ccc21 [7-71, (Z)-2-(2-(benzo[d]thiazol-2-yl)hydrazineylidene)-5-chloro-2,3-dihydro-1H-inden-1-one] | 47 min | 35% | Positive binding | Specific to 42D but weak |  | ~4.82
4 | O=C1/C(=N\Nc2ccc3ccccc3n2)Cc2ccccc21 [7-80, (Z)-2-(2-(quinolin-2-yl) hydrazineylidene)-2,3-dihydro-1H-inden-1-one] | 10 min | 4% |  | Specific to 42D |  | 
5 | O=C1/C(=N\Nc2nc3ccccc3s2)Cc2ccc(F)cc21 [7-81, (Z)-2-(2-(benzo[d]thiazol-2-yl)hydrazineylidene)-6-fluoro-2,3-dihydro-1H-inden-1-one] | 22 min | 26% | Positive binding | Specific to 42D |  | 
6 | O=C1/C(=N\Nc2cc3ccccc3s2)Cc2ccccc21 [7-83, (Z)-2-(2-(benzo[b]thiophen-2-yl)hydrazineylidene)-2,3-dihydro-1H-inden-1-one] | 17 min | 16% |  | Not effective on 42D or 16D cells |  | 
7 | O=c1c(=NNc2nc3ccccc3s2)c(=O)c2ccccc12 [7-85] | 32 min | 25% |  | Not specific |  | 
8 | O=C(NNc1nc2ccccc2s1)C1Cc2ccccc2C1=O (stereo not drawn) [7-86] | 19 min | 18% |  | Not specific |  | 
9 | O=C(O)c1csc(N/N=C2/Cc3ccccc3C2=O)n1 [7-87] | > 60 min | 98% |  | Not specific |  | 
10 | O=C(O)c1cnc(N/N=C2/Cc3ccccc3C2=O)s1 [7-88] | > 60 min | 94% |  | Not specific |  | 
11 | O=C1/C(=N\Nc2nc3ccccc3s2)CCc2ccccc21 [7-89] | 11 min | 2% |  | Not specific |  | 
12 | O=C1/C(=N\Nc2nc3ccccc3s2)Oc2ccccc21 [7-90] | 13 min | 4% | no binding | Not specific |  | 
13 | O=C1/C(=N\Nc2nc3ccccc3s2)Cc2c1cccc2C(F)(F)F [7-91] | > 60 min | 67% | Positive binding | Specific to 42D |  | ~5.70
14 | N#Cc1ccc2c(c1)C(=O)/C(=N\Nc1nc3ccccc3s1)C2 [7-92] | 48 min | 41% | Positive binding | Specific but weak |  | ~4.82
15 | N#Cc1ccc2c(c1)C/C(=N/Nc1nc3ccccc3s1)C2=O [7-93] | 44 min | 39% | no binding | Specific but weak |  | ~4.82
16 | O=C1/C(=N\Nc2nc3ccccc3s2)Cc2cc(Br)ccc21 [7-94] | > 60 min | 50% | Positive binding | Specific to 42D |  | ~5.70
17 | O=C1/C(=N\Nc2nc3ccccc3s2)Nc2ccccc21 [7-95] | > 60 min | 69% | Positive binding | Specific but weak |  | ~4.82
18 | Cc1ccc2c(c1)C/C(=N/Nc1nc3ccccc3s1)C2=O [7-96] | 31 min | 22% | inconclusive, needs to be repeated | Specific but weak |  | ~4.82
19 | O=C1/C(=N\Nc2nc3ccccc3s2)Cc2cc(F)c(F)cc21 [7-97] | > 60 min | 69% | Positive binding | Specific to 42D |  | ~5.70
20 | O=C1/C(=N\Nc2nc3ccccc3s2)Cc2cc(-c3ccccc3)ccc21 [7-98] | 33 min | 26% |  | Specific to 42D |  | ~5.70
21 | COc1ccc2c(c1)C/C(=N/Nc1nc3ccccc3s1)C2=O [7-99] | 15 min | 6% |  | Potent but effective on both 42D and 16D cells |  | 
22 | O=C1/C(=N\Nc2nc3ccccc3s2)Cc2ccc(C(F)(F)F)cc21 [7-107] | > 60 min | 82% |  | Low potency |  | 
23 | CNC(=O)c1ccc2c(c1)C/C(=N/Nc1nc3ccccc3s1)C2=O [7-117] |  |  | No binding | Not specific |  | 
24 | CNC(=O)c1ccc2c(c1)C(=O)/C(=N\Nc1nc3ccccc3s1)C2 [7-118] |  |  | No binding | very low activity |  | 
